Measurements as given in US4552882A, “7-(1-Pyrrolyl) derivatives of 1-ethyl-1,4-dihydro-4-oxoquinoline-3-carboxylic acids and 1-ethyl-1,4-dihydro-4-oxo-1,8-naphthyridine-3-carboxylic acids and their use as antimicrobial agents” (Provesan, SA, priority 1983, dated 1985).

Experiment: in vivo
Settings: mouse, ip
Description: To determine this toxicity, C.F.L.P. strain albino mice of both sexes, weighing between 19 and 25 grams, have been used as experimental animals. After an 18 hour fast period with water "ad libitum" the derivatives which are the subjects of the present invention are administered intraperitoneally in 5% suspension in gum arabic. The volume of suspension administered has in all cases been 0.4 ml/20 grams (20 ml/kg), changing the concentration of the suspension according to the dose administered.
One hour after the administration of the derivatives, the animals are supplied with Panlab standard rat-mouse feed. The period of observation of mortality has been 7 days.

CCn1cc(C(=O)O)c(=O)c2ccc(C)nc21 [Nalidixic acid, reference compound]
LD50 at 168 h: 600 mg/kg
